Values after ≈ are worked out from the molar mass of the structure shown.

Here are results for 17 compounds from ChEMBL document CHEMBL5113380, “Functionalized quinoxalinones as privileged structures with broad-ranging pharmacological activities” (Eur J Med Chem, 2022).

The nature of experiment [1]: Inhibition of ALR1 (unknown origin) relative to control. More on the design: concentration or dose not given beside the values. The conditions noted are these: Homo sapiens; concentration not given here.
The nature of experiment [2]: Antioxidant activity assessed as DPPH radical scavenging activity at 100 uM. Type of experiment: functional. Background: Loss of DPPH colour is used to gauge radical scavenging.
Experiment [3] can be described thus: Antioxidant activity assessed as DPPH radical scavenging activity at 50 uM. Type of experiment: functional.
A short description of experiment [4]: Inhibition of ALR2 (unknown origin). More on the design: species or system Homo sapiens.
The target of experiment [5] is T1, Glutamate receptor ionotropic AMPA (Homo sapiens, UniProt P42261+P42262+P42263+P48058). The experiment in a line: Displacement of [3H]AMPA from AMPA receptor (unknown origin). Type of experiment: protein-complex assay. (Loss of bound radioactivity is the signal in a displacement assay; it reports binding, not function.)
Experiment [6] in a line: Displacement of [3H]glycine from AMPA receptor (unknown origin). Type of experiment: protein-complex assay, Homo sapiens.
In experiment [7] the target is T1, Glutamate receptor ionotropic AMPA. The experiment in a line: Displacement of [3H]kainate from AMPA receptor (unknown origin). The format is protein-complex assay.
A further experiment deals with HCT-116. The experiment in a line: Antiproliferative activity against human HCT-116 cells after 72 hrs by MTT assay. Type of experiment: functional, cell-based. The conditions noted are these: HCT-116, 72 h. A general note: Tetrazolium dyes change colour on reduction, which living cells bring about.
For a further experiment, the system named is NCI-H460. The experiment in a line: Antiproliferative activity against human NCI-H460 cells after 72 hrs by MTT assay. The format is functional, cell-based. The conditions noted are these: NCI-H460, 72 h.
The test system of the next experiment is B16-F10. As to the kind of experiment: Antiproliferative activity against mouse B16-F10 cells after 72 hrs by MTT assay. Type of experiment: functional, cell-based. Particulars: B16-F10, 72 h.
The test system of another experiment is HeLa 229. As to the kind of experiment: Antiproliferative activity against human HeLa 229 cells after 72 hrs by MTT assay. Particulars: HeLa 229, 72 h. Type of experiment: functional, cell-based.
The next experiment relates to MRC5. The experiment in a line: Antiproliferative activity against human MRC5 cells. The format is functional, cell-based.
A further experiment has as its system A549. As to the kind of experiment: Antiproliferative activity against human A549 cells. Type of experiment: functional, cell-based.
A further experiment relates to HeLa. As to the kind of experiment: Antiproliferative activity against human HeLa cells. The format is functional, cell-based.
The next experiment has as its system LS174T. As to the kind of experiment: Antiproliferative activity against human LS174T cells. The format is functional, cell-based.
Experiment [8] deals with Human immunodeficiency virus type 1 reverse transcriptase (Human immunodeficiency virus 1) (UniProt Q72547). The experiment in a line: Inhibition of HIV1 reverse transcriptase at 10 uM relative to control.
Experiment [9] shares this target. The experiment in a line: Inhibition of HIV1 reverse transcriptase at 100 uM relative to control.
Experiment [10] concerns the target Human immunodeficiency virus type 1 reverse transcriptase (Human immunodeficiency virus 1, UniProt Q72547). The experiment in a line: Inhibition of HIV1 reverse transcriptase.
Another experiment deals with Candida parapsilosis. As to the kind of experiment: Antifungal activity against Candida parapsilosis. The conditions noted are these: Lodderomyces parapsilosis. Type of experiment: functional.
The test system of experiment [11] is Candida. As to the kind of experiment: Antifungal activity against Candida species isolate 1. Type of experiment: functional.
In another experiment the test system is Pichia kudriavzevii. As to the kind of experiment: Antifungal activity against Candida krusei. Type of experiment: functional.
The test system of experiment [12] is Staphylococcus aureus. As to the kind of experiment: Antibacterial activity against Staphylococcus aureus. The format is functional.
Experiment [13] relates to Candida. The experiment in a line: Antifungal activity against Candida species isolate 3. Type of experiment: functional.
A further experiment relates to Nakaseomyces glabratus. As to the kind of experiment: Antifungal activity against Candida glabrata. The format is functional.
The test system of a further experiment is Candida tropicalis. As to the kind of experiment: Antifungal activity against Candida tropicalis. Type of experiment: functional.
For another experiment, the system named is Candida albicans. As to the kind of experiment: Antifungal activity against Candida albicans. Type of experiment: functional.
Experiment [14] relates to Candida. As to the kind of experiment: Antifungal activity against Candida species isolate 2. Type of experiment: functional.
Experiment [15] in a line: Antioxidant activity assessed as DPPH radical scavenging activity at 10 uM. Type of experiment: functional.
A short description of experiment [16]: Antioxidant activity assessed as DPPH radical scavenging activity. Particulars: read-out: IC50. The format is functional.
In experiment [17] the target is Glutamate [NMDA] receptor. The experiment in a line: Displacement of [3H]glycine from NMDA receptor (unknown origin). The format is protein-complex assay, Homo sapiens.
In a further experiment the test system is Escherichia coli. As to the kind of experiment: Antibacterial activity against Escherichia coli. The format is functional.
Experiment [18] has as its system Staphylococcus aureus. As to the kind of experiment: Antibacterial activity against methicillin-resistant Staphylococcus aureus. The format is functional.
For the next experiment, the system named is Klebsiella pneumoniae. As to the kind of experiment: Antibacterial activity against Klebsiella pneumoniae. Type of experiment: functional.
The next experiment relates to Pseudomonas aeruginosa. As to the kind of experiment: Antibacterial activity against Pseudomonas aeruginosa. The format is functional.
Experiment [19] has as its target Glutamate [NMDA] receptor. As to the kind of experiment: Displacement of [3H]MK-801 from NMDA receptor (unknown origin). Type of experiment: protein-complex assay, Homo sapiens.
In the next experiment the target is T2, Alpha amylase (Homo sapiens, UniProt P0DUB6).
T2 sequence (P0DUB6 whole entry): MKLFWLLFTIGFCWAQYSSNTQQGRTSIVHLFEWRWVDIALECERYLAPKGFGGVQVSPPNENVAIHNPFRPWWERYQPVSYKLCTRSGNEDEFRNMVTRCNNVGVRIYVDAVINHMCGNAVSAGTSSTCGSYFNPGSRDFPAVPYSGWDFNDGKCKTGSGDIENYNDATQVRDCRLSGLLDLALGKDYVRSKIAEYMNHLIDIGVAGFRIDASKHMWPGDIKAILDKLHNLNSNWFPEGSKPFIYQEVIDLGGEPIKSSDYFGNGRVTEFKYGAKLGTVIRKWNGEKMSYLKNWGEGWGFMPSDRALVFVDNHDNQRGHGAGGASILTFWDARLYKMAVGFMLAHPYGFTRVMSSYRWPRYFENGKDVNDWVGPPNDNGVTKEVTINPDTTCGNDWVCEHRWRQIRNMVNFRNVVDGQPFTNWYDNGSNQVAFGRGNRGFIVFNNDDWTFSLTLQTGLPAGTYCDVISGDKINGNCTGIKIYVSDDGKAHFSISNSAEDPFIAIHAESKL
The experiment in a line: Inhibition of alpha-amylase (unknown origin).

For `COc1ccc2nc(/C=C/c3ccc(O)cc3)c(=O)n(CC(=O)O)c2c1`, in [1], the inhibition worked out at 37.6%. The results for the Activity in experiment [2] and in [3] were 59.2% and 34.3%, respectively. Further, in [4], inhibition was half-maximal at 0.059 µM (IC50).
Regarding `CC(C)CCN1CCc2c(Br)cc3nc(O)c(O)nc3c2C1`, the IC50 in experiment [5] is 9.7 µM; in experiment [6], above 10 µM; in experiment [7], 0.68 µM.
With `O=c1[nH]c2ccccc2nc1/C=C/c1ccccc1Br`, the IC50 in the experiment on HCT-116 is 12.3 µM; in the experiment on NCI-H460, 9.62 µM; in the experiment on B16-F10 it was 7.61 µM; in the experiment with HeLa 229 it was above 50 µM.
For `COc1ccc(C(=O)Nc2cccc(C(=O)/C=C3/Nc4ccccc4NC3=O)c2)cc1`, the IC50 with MRC5 worked out at 182 µM; in the experiment with A549 it was 40.4 µM; in the experiment on HeLa, 10.5 µM; in the experiment with LS174T it was 16.8 µM.
As for `CC(C)Cc1nc2ccccc2[nH]c1=O`, the inhibition in experiment [8] turned out to be 15%; in experiment [9], 73%. Also, in [10], the IC50 was found to be 23 µM.
As for `O=c1[nH]c2cc(F)c(F)cc2nc1CBr`, the MIC in the experiment with Candida parapsilosis amounted to 62.5 µg/mL (≈ 227 µM); against Candida [11] it was 62.5 µg/mL (≈ 227 µM); in the experiment with Pichia kudriavzevii, 125 µg/mL (≈ 454 µM); against Staphylococcus aureus [12], 125 µg/mL (≈ 454 µM); against Candida [13] it was 500 µg/mL (≈ 1820 µM); in the experiment with Nakaseomyces glabratus, 125 µg/mL (≈ 454 µM). Besides, the MIC is 500 µg/mL (≈ 1820 µM) in the experiment with Candida tropicalis, 31.2 µg/mL (≈ 113 µM) against Candida albicans and 125 µg/mL (≈ 454 µM) against Candida [14].
Compound `COc1cc(/C=C/c2nc3ccccc3n(CC(=O)O)c2=O)ccc1O` registered an inhibition in experiment [1] of 32.6%. Also, the values for the Activity in experiment [2], in [3] and in experiment [15] were 95.4%, 68.8% and 39.6%, respectively. Besides, the 50% inhibitory concentration (IC50) in experiment [4] is 0.419 µM; in experiment [16] it was 24.1 µM.
`O=c1c(/C=C/c2ccc(O)cc2)nc2ccc(F)cc2n1-c1cnn(O)c1` showed an inhibition in [1] of 34.3%. Also, the values for the Activity in experiment [2], in experiment [3] and in experiment [15] were 65.3%, 31.5% and 18.7%, respectively. The half-maximal inhibitory concentration (IC50) in experiment [4] was found to be 0.107 µM; in [16], 78.9 µM.
As to `Oc1nc2cc(Cl)c(Cl)cc2n2cnnc12`, the IC50 in [17] came out at 0.63 µM; in experiment [5] it was 4.69 µM.
In the case of `CSCCc1nc2ccc(N3C(=O)CSC3c3ccc(F)cc3)cc2[nH]c1=O` (configuration not stated), the MBC with Escherichia coli amounted to 46.8 µM (≈ 19.4 µg/mL); with Staphylococcus aureus [18], 93.7 µM (≈ 38.9 µg/mL); against Klebsiella pneumoniae, 11.7 µM (≈ 4.86 µg/mL); against Staphylococcus aureus [12], 23.4 µM (≈ 9.72 µg/mL); against Candida albicans, 35.1 µM (≈ 14.6 µg/mL); in the experiment with Pseudomonas aeruginosa it was 70.3 µM (≈ 29.2 µg/mL). Further, the half-inhibitory concentration (IC50) in [16] is 156 µM.
For the compound `O=c1[nH]c2cc(C(F)(F)F)ccc2nc1C(F)(F)F`, the MIC was 15.6 µg/mL (≈ 55.3 µM) with Candida parapsilosis; 15.6 µg/mL (≈ 55.3 µM) in the experiment on Candida [11]; 250 µg/mL (≈ 886 µM) against Pichia kudriavzevii; 125 µg/mL (≈ 443 µM) in the experiment with Candida [13]; 125 µg/mL (≈ 443 µM) in the experiment with Nakaseomyces glabratus; 125 µg/mL (≈ 443 µM) in the experiment with Candida tropicalis. Moreover, the minimal inhibitory concentration (MIC) with Candida albicans was determined as 8 µg/mL (≈ 28.4 µM); against Candida [14], 125 µg/mL (≈ 443 µM).
With `O=C(O)c1nc2c(=O)[nH]c3cc(Cl)c(Cl)cc3n2n1`, the 50% effective concentration (EC50) in experiment [19] was 0.3 µM. Also, the Ki in experiment [5] amounted to 1.3 µM; in [6], 0.074 µM.
With `O=C(/C=C/c1ccccc1)/C=C1/Nc2ccccc2NC1=O`, the half-maximal inhibitory concentration (IC50) in the experiment with MRC5 was 174 µM; with A549, 22.6 µM; in the experiment with HeLa, 16.6 µM; in the experiment on LS174T it was 19.1 µM.
`O=C1CSC(c2ccc(F)cc2)N1c1ccc2nc(Cc3ccc(O)cc3)c(=O)[nH]c2c1` (configuration not stated): the MBC in the experiment on Escherichia coli is 32.6 µM (≈ 14.6 µg/mL); with Staphylococcus aureus [18], 87 µM (≈ 38.9 µg/mL); against Klebsiella pneumoniae it was 87 µM (≈ 38.9 µg/mL); with Staphylococcus aureus [12], 43.5 µM (≈ 19.5 µg/mL); with Candida albicans, 65.2 µM (≈ 29.2 µg/mL); against Pseudomonas aeruginosa, 21.7 µM (≈ 9.71 µg/mL). Also, the IC50 in experiment [16] stood at 239 µM.
In the case of `COc1ccc(C2SCC(=O)N2c2ccc3nc(Cc4ccc(O)cc4)c(=O)[nH]c3c2)cc1` (configuration not stated), the MBC in the experiment on Escherichia coli was determined as 21.2 µM (≈ 9.74 µg/mL); in the experiment with Staphylococcus aureus [18], 63.8 µM (≈ 29.3 µg/mL); in the experiment with Staphylococcus aureus [12] it was 15.9 µM (≈ 7.31 µg/mL); in the experiment with Candida albicans, 85 µM (≈ 39.1 µg/mL); in the experiment on Pseudomonas aeruginosa, 680 µM (≈ 313 µg/mL). The IC50 was 19.6 µM in [16] and 301.59 µM against Alpha amylase.
For `CCC(C)N1CCc2c(Br)cc3nc(O)c(O)nc3c2C1` (configuration not stated), the concentration for half-maximal inhibition (IC50) in [5] was 2.5 µM; in experiment [6], above 10 µM; in [7] it was 0.43 µM.
Consider `Cc1cc2[nH]c(=O)c(=O)n(CP(=O)(O)O)c2cc1C`, for which the Ki in experiment [17] stood at 5.28 µM; in experiment [5], 1.21 µM.

Broadly, the inhibition is the percentage by which the read-out fell short of the control. Usually IC50 stands for the midpoint of a concentration-inhibition curve. The MIC is the lowest concentration that inhibits growth of the organism. In general, EC50 refers to the concentration giving half of the maximal effect. One may read the Ki as a measure of affinity in units of concentration, obtained from inhibition or displacement.
